Measured values reported in ChEMBL document CHEMBL3352042, “Synthesis of novel benzimidazole functionalized chiral thioureas and evaluation of their antibacterial and anticancer activities” (Bioorg Med Chem Lett, 2014).
Values after ≈ are worked out from the molar mass of the structure shown. Active and inactive are the calls of the source. The calls are words filed in the database; no cut-off is given here.

How the values were obtained:
[1] = tested on: Staphylococcus aureus; assay: Antibacterial activity against Staphylococcus aureus MTCC 96 after 24 hrs by well diffusion method; assay type: functional
[2] = tested on: Bacillus subtilis; assay: Antibacterial activity against Bacillus subtilis MTCC 121 after 24 hrs by well diffusion method; assay type: functional
[3] = tested on: Staphylococcus aureus; assay: Antibacterial activity against Staphylococcus aureus MLS16 MTCC 2940 after 24 hrs by well diffusion method; assay type: functional
[4] = tested on: Micrococcus luteus; assay: Antibacterial activity against Micrococcus luteus MTC 2470 after 24 hrs by well diffusion method; assay type: functional
[5] = tested on: Raoultella planticola; assay: Antibacterial activity against Klebsiella planticola MTCC 530 after 24 hrs by well diffusion method; assay type: functional
[6] = tested on: Escherichia coli; assay: Antibacterial activity against Escherichia coli MTCC 739 after 24 hrs by well diffusion method; assay type: functional
[7] = tested on: Pseudomonas aeruginosa; assay: Antibacterial activity against Pseudomonas aeruginosa MTCC 2453 after 24 hrs by well diffusion method; assay type: functional
[8] = tested on: A549; assay: Cytotoxicity against human A549 cells by MTT assay; assay type: functional, cell-based
[9] = tested on: MCF7; assay: Cytotoxicity against human MCF7 cells by MTT assay; assay type: functional, cell-based
[10] = tested on: DU-145; assay: Cytotoxicity against human DU145 cells by MTT assay; assay type: functional, cell-based
[11] = tested on: HeLa; assay: Cytotoxicity against human HeLa cells by MTT assay; assay type: functional, cell-based
[12] = Homo sapiens, A549, read-out: IC50
[13] = Homo sapiens, MCF7, read-out: IC50
[14] = Homo sapiens, DU-145, read-out: IC50
[15] = Homo sapiens, HeLa, read-out: IC50

NC[C@@H]1O[C@H](O[C@H]2[C@@H](O)[C@H](O[C@@H]3[C@@H](O)[C@H](N)C[C@H](N)[C@H]3O[C@H]3O[C@H](CN)[C@@H](O)[C@H](O)[C@H]3N)O[C@@H]2CO)[C@H](N)[C@@H](O)[C@@H]1O [FRAMYCETIN]
MIC ([1]; MTCC 96, 24 h): 12.5 µg/mL (≈ 20.3 µM)
MIC ([2]; MTCC 121, 24 h): 12.5 µg/mL (≈ 20.3 µM)
MIC ([3]; MLS16 MTCC 2940, 24 h): 12.5 µg/mL (≈ 20.3 µM)
MIC ([4]; MTC 2470, 24 h): 12.5 µg/mL (≈ 20.3 µM)
MIC ([5]; MTCC 530, 24 h): 12.5 µg/mL (≈ 20.3 µM)
MIC ([6]; MTCC 739, 24 h): 12.5 µg/mL (≈ 20.3 µM)
MIC ([7]; MTCC 2453, 24 h): 12.5 µg/mL (≈ 20.3 µM)

FC(F)(F)c1cc(NC(=S)N[C@H](Cc2ccccc2)c2nc3ccccc3[nH]2)cc(C(F)(F)F)c1
MIC [1]: inactive
MIC [2]: inactive
MIC [3]: inactive
MIC [4]: inactive
MIC [5]: inactive
MIC [6]: inactive
MIC [7]: inactive
IC50 [8, 12]: 15.8 µM
IC50 [9, 13]: 12.1 µM
IC50 [10, 14]: 17.4 µM
IC50 [11, 15]: 13.2 µM

CC(C)[C@@H](NC(=S)Nc1ccccc1)c1nc2ccccc2[nH]1
MIC [1]: inactive
MIC [2]: inactive
MIC [3]: inactive
MIC [4]: inactive
MIC [5]: inactive
MIC [6]: inactive
MIC [7]: inactive
IC50 [8, 12]: 31.5 µM
IC50 ([9]; mcf7): Not Active
IC50 [10, 14]: 34.8 µM
IC50 ([11]; hela): Not Active

CC(C)[C@@H](NC(=S)NCc1ccccc1)c1nc2ccccc2[nH]1
MIC [1]: inactive
MIC [2]: inactive
MIC [3]: inactive
MIC [4]: inactive
MIC [5]: inactive
MIC [6]: inactive
MIC [7]: inactive
IC50 [8, 12]: 11.3 µM
IC50 [9, 13]: 11.1 µM
IC50 [10, 14]: 17.3 µM
IC50 [11, 15]: 12.3 µM

C[C@H](NC(=S)Nc1ccccc1)c1nc2ccccc2[nH]1
MIC ([1]; MTCC 96, 24 h): 12.5 µg/mL (≈ 42.2 µM)
MIC ([2]; MTCC 121, 24 h): 12.5 µg/mL (≈ 42.2 µM)
MIC ([3]; MLS16 MTCC 2940, 24 h): > 200 µg/mL
MIC ([4]; MTC 2470, 24 h): > 200 µg/mL
MIC ([5]; MTCC 530, 24 h): > 200 µg/mL
MIC ([6]; MTCC 739, 24 h): > 200 µg/mL
MIC ([7]; MTCC 2453, 24 h): > 200 µg/mL
IC50 [8, 12]: 188 µM
IC50 [9, 13]: 196 µM
IC50 ([10]; du-145): Not Active
IC50 ([11]; hela): Not Active

C[C@@H](NC(=S)Nc1ccccc1)c1nc2ccccc2[nH]1
MIC [1]: inactive
MIC [2]: inactive
MIC [3]: inactive
MIC [4]: inactive
MIC [5]: inactive
MIC [6]: inactive
MIC [7]: inactive
IC50 [8, 12]: 14.8 µM
IC50 [9, 13]: 16.4 µM
IC50 [10, 14]: 22.1 µM
IC50 [11, 15]: 12.4 µM

C[C@H](NC(=S)NCc1ccccc1)c1nc2ccccc2[nH]1
MIC ([1]; MTCC 96, 24 h): 12.5 µg/mL (≈ 40.3 µM)
MIC ([2]; MTCC 121, 24 h): 25 µg/mL (≈ 80.5 µM)
MIC ([3]; MLS16 MTCC 2940, 24 h): > 200 µg/mL
MIC ([4]; MTC 2470, 24 h): > 200 µg/mL
MIC ([5]; MTCC 530, 24 h): > 200 µg/mL
MIC ([6]; MTCC 739, 24 h): > 200 µg/mL
MIC ([7]; MTCC 2453, 24 h): > 200 µg/mL
IC50 ([8]; a549): Not Active
IC50 [9, 13]: 217 µM
IC50 [10, 14]: 226 µM

CC(C)C[C@@H](NC(=S)Nc1ccccc1)c1nc2ccccc2[nH]1
MIC [1]: inactive
MIC [2]: inactive
MIC [3]: inactive
MIC [4]: inactive
MIC [5]: inactive
MIC [6]: inactive
MIC [7]: inactive
IC50 [8, 12]: 18.7 µM
IC50 [9, 13]: 11.9 µM
IC50 [10, 14]: 20 µM
IC50 [11, 15]: 12.1 µM

S=C(NCc1ccccc1)N[C@H](Cc1ccccc1)c1nc2ccccc2[nH]1
MIC [1]: inactive
MIC [2]: inactive
MIC [3]: inactive
MIC [4]: inactive
MIC [5]: inactive
MIC [6]: inactive
MIC [7]: inactive
IC50 [8, 12]: 26.5 µM
IC50 [9, 13]: 32.2 µM
IC50 [10, 14]: 24.3 µM
IC50 ([11]; hela): Not Active

CC(C)[C@@H](NC(=S)Nc1cc(C(F)(F)F)cc(C(F)(F)F)c1)c1nc2ccccc2[nH]1
MIC [1]: inactive
MIC [2]: inactive
MIC [3]: inactive
MIC [4]: inactive
MIC [5]: inactive
MIC [6]: inactive
MIC [7]: inactive
IC50 [8, 12]: 22.4 µM
IC50 [9, 13]: 16.4 µM
IC50 [10, 14]: 20.2 µM
IC50 [11, 15]: 16.2 µM

C[C@@H](NC(=S)NCc1ccccc1)c1nc2ccccc2[nH]1
MIC [1]: inactive
MIC [2]: inactive
MIC [3]: inactive
MIC [4]: inactive
MIC [5]: inactive
MIC [6]: inactive
MIC [7]: inactive
IC50 [8, 12]: 18.7 µM
IC50 [9, 13]: 14.3 µM
IC50 [10, 14]: 28.7 µM
IC50 ([11]; hela): Not Active

C[C@@H](NC(=S)Nc1cc(C(F)(F)F)cc(C(F)(F)F)c1)c1nc2ccccc2[nH]1
MIC [1]: inactive
MIC [2]: inactive
MIC [3]: inactive
MIC [4]: inactive
MIC [5]: inactive
MIC [6]: inactive
MIC [7]: inactive
IC50 [8, 12]: 15.2 µM
IC50 [9, 13]: 10.3 µM
IC50 [10, 14]: 17.6 µM
IC50 [11, 15]: 16.1 µM

CC(C)[C@H](NC(=S)NCc1ccccc1)c1nc2ccccc2[nH]1
MIC ([1]; MTCC 96, 24 h): 12.5 µg/mL (≈ 36.9 µM)
MIC ([2]; MTCC 121, 24 h): 12.5 µg/mL (≈ 36.9 µM)
MIC ([3]; MLS16 MTCC 2940, 24 h): > 200 µg/mL
MIC ([4]; MTC 2470, 24 h): > 200 µg/mL
MIC ([5]; MTCC 530, 24 h): > 200 µg/mL
MIC ([6]; MTCC 739, 24 h): > 200 µg/mL
MIC ([7]; MTCC 2453, 24 h): > 200 µg/mL
IC50 [8, 12]: 56.1 µM
IC50 [9, 13]: 57.8 µM
IC50 [10, 14]: 48.5 µM
IC50 [11, 15]: 49.9 µM

CC(C)C[C@H](NC(=S)NCc1ccccc1)c1nc2ccccc2[nH]1
MIC ([1]; MTCC 96, 24 h): > 200 µg/mL
MIC ([2]; MTCC 121, 24 h): > 200 µg/mL
MIC ([3]; MLS16 MTCC 2940, 24 h): > 200 µg/mL
MIC ([4]; MTC 2470, 24 h): > 200 µg/mL
MIC ([5]; MTCC 530, 24 h): > 200 µg/mL
MIC ([6]; MTCC 739, 24 h): > 200 µg/mL
MIC ([7]; MTCC 2453, 24 h): > 200 µg/mL
IC50 [8, 12]: 75.7 µM
IC50 [10, 14]: 21.1 µM
IC50 [11, 15]: 31.2 µM

S=C(NCc1ccccc1)N[C@@H](Cc1ccccc1)c1nc2ccccc2[nH]1
MIC ([1]; MTCC 96, 24 h): 25 µg/mL (≈ 64.7 µM)
MIC ([2]; MTCC 121, 24 h): > 200 µg/mL
MIC ([3]; MLS16 MTCC 2940, 24 h): > 200 µg/mL
MIC ([4]; MTC 2470, 24 h): > 200 µg/mL
MIC ([5]; MTCC 530, 24 h): > 200 µg/mL
MIC ([6]; MTCC 739, 24 h): > 200 µg/mL
MIC ([7]; MTCC 2453, 24 h): > 200 µg/mL
IC50 [8, 12]: 32.8 µM
IC50 [9, 13]: 40.2 µM
IC50 [10, 14]: 39.7 µM
IC50 [11, 15]: 30.1 µM

S=C(Nc1ccccc1)N[C@H](Cc1ccccc1)c1nc2ccccc2[nH]1
MIC [1]: inactive
MIC [2]: inactive
MIC [3]: inactive
MIC [4]: inactive
MIC [5]: inactive
MIC [6]: inactive
MIC [7]: inactive
IC50 [8, 12]: 16.2 µM
IC50 [9, 13]: 9.4 µM
IC50 [10, 14]: 18.4 µM
IC50 [11, 15]: 10.4 µM

COc1cccc2c1C(=O)c1c(O)c3c(c(O)c1C2=O)C[C@@](O)(C(=O)CO)C[C@@H]3O[C@H]1C[C@H](N)[C@H](O)[C@H](C)O1 [DOXORUBICIN]
IC50 [10, 14]: 0.8 µM

CC(C)C[C@@H](NC(=S)Nc1cc(C(F)(F)F)cc(C(F)(F)F)c1)c1nc2ccccc2[nH]1
MIC [1]: inactive
MIC [2]: inactive
MIC [3]: inactive
MIC [4]: inactive
MIC [5]: inactive
MIC [6]: inactive
MIC [7]: inactive
IC50 [8, 12]: 10.2 µM
IC50 [9, 13]: 91 µM
IC50 [10, 14]: 16.5 µM
IC50 [11, 15]: 10.4 µM
